Where two headings read alike, the source gives them in different places.

Results on 24 compounds are retold here after patent US10758534B2 (Vertex Pharmaceuticals Incorporated, priority 2014, dated 2020).

The target in the assay is T1, F508del (Homo sapiens, UniProt P13569, DEL508-508).
T1 construct: expressed in transfected cells
Nature of the assay: Protocol 2: FRET membrane potential optical assay (VIPR), identification of correction compounds. The class given is cell-based. The text has this: Membrane potential optical methods for assaying F508del modulation properties of compounds.
These voltage sensitive assays are based on the change in fluorescence resonant energy transfer (FRET) between the membrane-soluble, voltage-sensitive dye, DiSBAC2(3), and a fluorescent phospholipid, CC2-DMPE, which is attached to the outer leaflet of the plasma membrane and acts as a FRET donor. Changes in membrane potential (Vm) cause the negatively charged DiSBAC2(3) to redistribute across the plasma membrane and the amount of energy transfer from CC2-DMPE changes accordingly. The changes in fluorescence emission were monitored using VIPR™ II, which is an integrated liquid handler and fluorescent detector designed to conduct cell-based screens in 96- or 384-well microtiter plates.
To identify small molecules that correct the trafficking defect associated with F508del; a single-addition HTS assay format was developed. The cells were incubated in serum-free medium for 16 hrs at 37° C. in the presence or absence (negative control) of test compound. As a positive control, cells plated in 384-well plates were incubated for 16 hrs at 27° C. to “temperature-correct” F508del. The cells were subsequently rinsed 3× with Krebs Ringers solution and loaded with the voltage-sensitive dyes. To activate F508del, 10 μM forskolin and the CFTR potentiator, genistein (20 μM), were added along with Cl^−-free medium to each well. The addition of Cl^−-free medium promoted Cl^− efflux in response to F508del activation and the resulting membrane depolarization was optically monitored using the FRET-based voltage-sensor dyes.
• Bath Solution #1: (in mM) NaCl 160, KCl 4.5, CaCl2 2, MgCl2 1, HEPES 10, pH 7.4 with NaOH. • Chloride-free bath solution: Chloride salts in Bath Solution #1 (above) are substituted with gluconate salts. • CC2-DMPE: Prepared as a 10 mM stock solution in DMSO and stored at −20° C. • DiSBAC2(3): Prepared as a 10 mM stock in DMSO and stored at −20° C. Cell Culture
NIH3T3 mouse fibroblasts stably expressing F508del are used for optical measurements of membrane potential. The cells are maintained at 37° C. in 5% CO2 and 90% humidity in Dulbecco's modified Eagle's medium supplemented with 2 mM glutamine, 10% fetal bovine serum, 1×NEAA, β-ME, 1× pen/strep, and 25 mM HEPES in 175 cm^2 culture flasks. For all optical assays, the cells were seeded at 30,000/well in 384-well matrigel-coated plates and cultured for 2 hrs at 37° C. before culturing at 27° C. for 24 hrs for the potentiator assay. For the correction assays, the cells are cultured at 27° C. or 37° C. with and without compounds for 16-24 hours.

Setting [1] is: Table 3, compounds of Table 1 as modulators of CFTR activity, protocol not stated.
[2] abbreviates: F508del CFTR modulator activity, compounds of Table 1, read-out: EC30.

T1 sequence (P13569 with tags, fused parts or gaps DEL508-508): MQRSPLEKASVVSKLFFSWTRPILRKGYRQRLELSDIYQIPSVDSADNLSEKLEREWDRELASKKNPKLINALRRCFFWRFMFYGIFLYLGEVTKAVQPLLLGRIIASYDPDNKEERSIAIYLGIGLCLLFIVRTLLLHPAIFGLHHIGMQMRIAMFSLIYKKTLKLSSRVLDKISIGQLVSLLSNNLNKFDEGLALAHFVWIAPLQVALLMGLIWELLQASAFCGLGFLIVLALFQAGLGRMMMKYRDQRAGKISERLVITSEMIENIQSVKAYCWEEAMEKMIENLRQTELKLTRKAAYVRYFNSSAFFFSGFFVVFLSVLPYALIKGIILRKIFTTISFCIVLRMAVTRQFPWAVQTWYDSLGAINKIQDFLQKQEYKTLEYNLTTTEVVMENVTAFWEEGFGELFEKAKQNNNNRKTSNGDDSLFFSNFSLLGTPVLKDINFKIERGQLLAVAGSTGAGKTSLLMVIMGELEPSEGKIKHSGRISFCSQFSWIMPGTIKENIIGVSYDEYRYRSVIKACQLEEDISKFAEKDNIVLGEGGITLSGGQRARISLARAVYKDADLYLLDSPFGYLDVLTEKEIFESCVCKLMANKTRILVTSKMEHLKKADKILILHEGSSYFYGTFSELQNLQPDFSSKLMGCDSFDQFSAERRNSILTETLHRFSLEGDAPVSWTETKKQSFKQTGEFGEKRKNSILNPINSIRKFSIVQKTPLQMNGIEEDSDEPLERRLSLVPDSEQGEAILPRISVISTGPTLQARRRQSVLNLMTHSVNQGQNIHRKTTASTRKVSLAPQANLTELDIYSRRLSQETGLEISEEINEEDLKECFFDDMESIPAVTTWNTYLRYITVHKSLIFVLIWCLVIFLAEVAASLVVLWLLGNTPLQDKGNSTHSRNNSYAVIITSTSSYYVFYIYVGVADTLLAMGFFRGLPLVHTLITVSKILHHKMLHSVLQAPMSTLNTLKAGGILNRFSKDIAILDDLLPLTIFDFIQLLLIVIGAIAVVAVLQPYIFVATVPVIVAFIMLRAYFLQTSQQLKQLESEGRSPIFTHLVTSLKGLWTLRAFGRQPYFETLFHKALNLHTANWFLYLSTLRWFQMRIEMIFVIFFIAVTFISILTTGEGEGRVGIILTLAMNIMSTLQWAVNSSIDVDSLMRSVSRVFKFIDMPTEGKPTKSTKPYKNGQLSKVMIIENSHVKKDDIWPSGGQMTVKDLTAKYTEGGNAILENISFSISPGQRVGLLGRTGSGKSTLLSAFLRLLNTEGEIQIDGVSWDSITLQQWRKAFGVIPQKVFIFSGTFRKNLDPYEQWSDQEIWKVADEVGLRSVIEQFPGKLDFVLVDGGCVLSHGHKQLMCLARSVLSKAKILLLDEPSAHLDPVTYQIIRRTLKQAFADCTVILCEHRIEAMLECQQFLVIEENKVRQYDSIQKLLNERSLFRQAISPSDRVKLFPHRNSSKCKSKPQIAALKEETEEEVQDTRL

In general, EC30 refers to the point of the concentration-response curve where the effect stands at 30%. On to `Cc1cc(C)c(Cn2nc(C(C)(C)C)cc2C(=O)NS(=O)(=O)c2cccc3ncccc23)c(C)c1` [Compound 352, 5-tert-butyl-N-(5-quinolylsulfonyl)-2-[(2,4,6-trimethylphenyl)methyl]pyrazole-3-carboxamide], for which the EC30 result under setting [1] is on record as “+++ (“+++” means <3 uM)”.

For the compound `Cc1cc(C)c(Oc2ccc(C(C)(C)C)nc2C(=O)NS(=O)(=O)c2ccccc2)c(C)c1` [Compound 350, N-(benzenesulfonyl)-6-tert-butyl-3-(2,4,6-trimethylphenoxy)pyridine-2-carboxamide], the EC30 entry under setting [1] is “+++ (“+++” means <3 uM)”.

In the case of `Cc1cccc(C)c1Cn1nc(-c2cccc(N(C)C)c2)cc1C(=O)NS(=O)(=O)c1ccccc1` [Compound 178, N-(benzenesulfonyl)-5-[3-(dimethylamino)phenyl]-2-[(2,6-dimethylphenyl)methyl]pyrazole-3-carboxamide], the EC30 entry under setting [1] is “+++ (“+++” means <3 uM)”.

Turning to `COc1cccc(-c2ccc(C(=O)NS(=O)(=O)c3ccc[nH]c3=O)c(N3C[C@@H](C)CC3(C)C)n2)c1F` [Compound 2222, 6-(2-fluoro-3-methoxy-phenyl)-N-[(2-oxo-1H-pyridin-3-yl)sulfonyl]-2-[(4S)-2,2,4-trimethylpyrrolidin-1-yl]pyridine-3-carboxamide], the EC30 under setting [2] is 3000 to 10000 nM.

In the case of `C[C@@H]1CN(c2nc(-c3cccc(OC(F)(F)F)c3)ccc2C(=O)NS(=O)(=O)c2cccc(N)n2)C(C)(C)C1` [Compound 2366, N-[(6-amino-2-pyridyl)sulfonyl]-6-[3-(trifluoromethoxy)phenyl]-2-[(4S)-2,2,4-trimethylpyrrolidin-1-yl]pyridine-3-carboxamide], the EC30 under setting [2] is less than 3000 nM.

For `COc1ncc(-c2ccc(C(=O)NS(=O)(=O)c3ccc[nH]c3=O)c(N3C[C@@H](C)CC3(C)C)n2)cc1F` [Compound 2444, 6-(5-fluoro-6-methoxy-3-pyridyl)-N-[(2-oxo-1H-pyridin-3-yl)sulfonyl]-2-[(4S)-2,2,4-trimethylpyrrolidin-1-yl]pyridine-3-carboxamide], the EC30 under setting [2] is 3000 to 10000 nM.

In the case of `Cc1cc(C)c(Cn2c(C(=O)NS(=O)(=O)c3ccccc3)cc3cc(C)ccc32)c(C)c1` [Compound 248, N-(benzenesulfonyl)-5-methyl-1-[(2,4,6-trimethylphenyl)methyl]indole-2-carboxamide], the concentration for an effect of 30% (EC30) entry under setting [1] is on record as “+++ (“+++” means <3 uM)”.

As for `Cc1ccc(Oc2nc(C(C)(C)C)ccc2C(=O)NS(=O)(=O)c2ccc[nH]c2=O)c(C)c1` [Compound 55, 6-tert-butyl-2-(2,4-dimethylphenoxy)-N-[(2-oxo-1H-pyridin-3-yl)sulfonyl]pyridine-3-carboxamide], the EC30 result under setting [1] was “++ (“++” means between 3 uM and 10 uM)”.

For `COC1CCCN(c2nc(-c3cc(F)cc(OCC(C)C)c3)ccc2C(=O)NS(=O)(=O)c2ccn[nH]2)C1` (stereo not drawn) [Compound 749, 6-(3-fluoro-5-isobutoxy-phenyl)-2-(3-methoxy-1-piperidyl)-N-(1H-pyrazol-5-ylsulfonyl)pyridine-3-carboxamide], under setting [1], the EC30 result is listed as “+++ (“+++” means <3 uM)”.

Consider `Cc1ccc(OCc2ccccc2)cc1-c1cnc(N2CC(C)CC2(C)C)c(C(=O)NS(=O)(=O)c2cccc(N)n2)c1` (stereo not drawn) [Compound 2588, N-[(6-amino-2-pyridyl)sulfonyl]-5-(5-benzyloxy-2-methyl-phenyl)-2-(2,2,4-trimethylpyrrolidin-1-yl)pyridine-3-carboxamide], for which the EC30 under setting [2] is less than 3000 nM.

Take `Cc1cccc(-c2ccc(C(=O)NS(=O)(=O)c3cccnc3N)c(N3C[C@@H](C)CC3(C)C)n2)c1O` [Compound 2592, N-[(2-amino-3-pyridyl)sulfonyl]-6-(2-hydroxy-3-methyl-phenyl)-2-[(4S)-2,2,4-trimethylpyrrolidin-1-yl]pyridine-3-carboxamide]: the EC30 under setting [2] is less than 3000 nM.

As for `CC1CN(c2ncccc2C(=O)NS(=O)(=O)c2cccc(OCc3cc(F)cc(F)c3)n2)C(C)(C)C1` (stereo not drawn) [Compound 2462, N—[[6-[(3,5-difluorophenyl)methoxy]-2-pyridyl]sulfonyl]-2-(2,2,4-trimethylpyrrolidin-1-yl)pyridine-3-carboxamide], the EC30 under setting [2] is less than 3000 nM.

With `CC(C)Oc1cccc(-c2ccc(C(=O)NS(=O)(=O)N3CC[C@H](N)C3)c(N3C[C@@H](C)CC3(C)C)n2)c1` [Compound 2156, N-[(3S)-3-aminopyrrolidin-1-yl]sulfonyl-6-(3-isopropoxyphenyl)-2-[(4S)-2,2,4-trimethylpyrrolidin-1-yl]pyridine-3-carboxamide], under setting [2], the EC30 is less than 3000 nM.

Turning to `CC(C)COc1cc(F)cc(-c2ccc(C(=O)NS(=O)(=O)c3cccc(N)n3)c(N3CCCC3(C)Cc3ccccc3)n2)c1` (stereo not drawn) [Compound 663, N-[(6-amino-2-pyridyl)sulfonyl]-2-(2-benzyl-2-methyl-pyrrolidin-1-yl)-6-(3-fluoro-5-isobutoxy-phenyl)pyridine-3-carboxamide], the EC30 result under setting [1] is reported as “+++ (“+++” means <3 uM)”.

Take `C[C@@H]1CN(c2nc(-n3ccc(-c4ccccc4)n3)ccc2C(=O)NS(=O)(=O)c2cccnc2N)C(C)(C)C1` [Compound 2696]: under setting [2], the EC30 is less than 3000 nM.

Consider `COc1ncccc1S(=O)(=O)NC(=O)c1ccc(C2(C)CC2)nc1Oc1c(C)cc(C)cc1C` [Compound 365, N-[(2-methoxy-3-pyridyl)sulfonyl]-6-(1-methylcyclopropyl)-2-(2,4,6-trimethylphenoxy)pyridine-3-carboxamide], for which the EC30 result under setting [1] is “+++ (“+++” means <3 uM)”.

Turning to `CC1CCN(c2cccc(S(=O)(=O)NC(=O)c3cccnc3N3CC(C)CC3(C)C)n2)C1` (stereo not drawn) [Compound 2116, N—[[6-(3-methylpyrrolidin-1-yl)-2-pyridyl]sulfonyl]-2-(2,2,4-trimethylpyrrolidin-1-yl)pyridine-3-carboxamide], under setting [2], the EC30 was less than 3000 nM.

`C[C@@H]1CN(c2nc(-c3cc(F)ccc3F)ccc2C(=O)NS(=O)(=O)N2CC[C@H](N)C2)C(C)(C)C1` [Compound 2489, N-[(3S)-3-aminopyrrolidin-1-yl]sulfonyl-6-(2,5-difluorophenyl)-2-[(4S)-2,2,4-trimethylpyrrolidin-1-yl]pyridine-3-carboxamide]: the EC30 under setting [2] was in the range of 3000 to 10000 nM.

For `Cc1cc(C)c(CN2CC(C)(C)c3ccccc3C2C(=O)NS(=O)(=O)c2cccc(N)n2)c(C)c1` (stereo not drawn) [Compound 140, N-[(6-amino-2-pyridyl)sulfonyl]-4,4-dimethyl-2-[(2,4,6-trimethylphenyl)methyl]-1,3-dihydroisoquinoline-1-carboxamide], the EC30 result under setting [1] is given as “+++ (“+++” means <3 uM)”.

Turning to `Cc1cc(C)c(Oc2nc(-c3ccc(C(=O)NC(C)C)c(F)c3)ccc2C(=O)NS(=O)(=O)c2cccc(N)n2)c(C)c1` [Compound 543, N-[(6-amino-2-pyridyl)sulfonyl]-6-[3-fluoro-4-(isopropylcarbamoyl)phenyl]-2-(2,4,6-trimethylphenoxy)pyridine-3-carboxamide], under setting [1], the EC30 entry is “++ (“++” means between 3 uM and 10 uM)”.

Turning to `CC1CCN(c2nc(-c3cc(F)cc(OC(C)C)c3)ccc2C(=O)NS(=O)(=O)c2nccnc2N)CC1` [Compound 699, N-(3-aminopyrazin-2-yl)sulfonyl-6-(3-fluoro-5-isopropoxy-phenyl)-2-(4-methyl-1-piperidyl)pyridine-3-carboxamide], the EC30 result under setting [1] is listed as “+++ (“+++” means <3 uM)”.

In the case of `Cc1cc(C)c(Oc2ccc(C(C)(C)C)nc2C(=O)NS(=O)(=O)c2cccc(N)c2)c(C)c1` [Compound 106, N-(3-aminophenyl)sulfonyl-6-tert-butyl-3-(2,4,6-trimethylphenoxy)pyridine-2-carboxamide], the EC30 entry under setting [1] is “+++ (“+++” means <3 uM)”.

On to `Cc1ccc(-c2ccc(C(=O)NS(=O)(=O)c3cccnc3N)c(N3C[C@@H](C)CC3(C)C)n2)cn1` [Compound 2363, N-[(2-amino-3-pyridyl)sulfonyl]-6-(6-methyl-3-pyridyl)-2-[(4S)-2,2,4-trimethylpyrrolidin-1-yl]pyridine-3-carboxamide], for which the EC30 under setting [2] is 3000 to 10000 nM.

With `CC(C)COc1cc(F)cc(-c2ccc(C(=O)NS(=O)(=O)c3cccc(N)n3)c(N3CCC(C)C(C)C3)n2)c1` (single isomer, unassigned) [Compound 2532, N-[(6-amino-2-pyridyl)sulfonyl]-2-(3,4-dimethyl-1-piperidyl)-6-(3-fluoro-5-isobutoxy-phenyl)pyridine-3-carboxamide], the EC30 entry (F508del CFTR modulator activity, compounds of Table 1) is “+++ (“+++” means <3 uM)”.
